Each structure is given as a SMILES string.

The test system of this assay is M. tuberculosis gyrase, GyrB Arg141 mutants. The format is biochemical, Mycobacterium tuberculosis.

As to `CO[C@@H]1[C@@H](OC(N)=O)[C@@H](O)[C@H](Oc2ccc3c(O)c(NC(=O)c4ccc(O)c(CC=C(C)C)c4)c(=O)oc3c2C)OC1(C)C` [novobiocin, reference compound], the “inhibition of supercoiling of Arg141 mutant gyrase” value is on record as “at least partially inhibited”. The entry for `CNc1cc(F)cc2c1[nH]c1nc(Oc3cnc(C)nc3)nc(N3C[C@@H]4[C@@H](N)[C@@H]4C3)c12` [Redx03863] is “susceptible to inhibition”.

The values above are taken from paper PMC7556816, “Structural and mechanistic analysis of ATPase inhibitors targeting mycobacterial DNA gyrase” (Journal of Antimicrobial Chemotherapy, 2020).
